# Laboratory results published in patent publication US20220152022A1.
# Several values for one entry are separate records, joined by “and”; a condition that tells them apart may be missing. Identical values can stand only once. Counter-ions that a name gives are not always drawn.
# Legend:
# Format in all cases: in vivo, human
# [1] = test system: Overweight and Obese Adults; test: Dose-ranging phase 1 clinical study (NCT02475317), multiple oral doses for 7 days; details: for treatment-emergent adverse events: all doses, 7 days; for Mean serum 7αC4: change from baseline to day 7, greatest change at maralixibat 50 mg BID; for Mean sBA levels: versus baseline, day 7
# [2] = test system: Children with Progressive Familial Intrahepatic Cholestasis; test: INDIGO phase 2 open-label efficacy and safety study of maralixibat
# Source text: The HRQoL used was the […] QUALITY OF LIFE INVENTORY (PedsQL).
# [3] = test system: Children with Alagille Syndrome; test: ICONIC phase 2b randomized placebo-controlled drug-withdrawal study with long-term extension
# Procedure: Children aged 1-18 years with a diagnosis of ALGS and evidence of cholestasis were eligible to enroll in the ICONIC clinical study, see Tables 12-14. During a long-term extension, participants with sBA levels above the upper limit of normal and/or an ITCHRO(OBS) score >1.5 were eligible for the 400 μg/kg BID dose (all participants received the 400 μg/kg BID dose). Inclusion criteria for the ICONIC study included having cholestasis, which was defined as at least one of 1) sBA concentration (total sBA) >3× the upper limit of normal, 2) serum conjugated bilirubin concentration >1 mg/dL, 3) fat-soluble vitamin deficiency not otherwise explained, 4) serum gamma-glutamyl transferase concentration >3× the upper limit of normal, and 3) intractable pruritus explainable only by liver disease. Inclusion criteria also included having significant pruritus, which was defined as an average daily score of >2 on the ITCHRO(OBS) scale for 2 consecutive weeks (0=no pruritus; 4=most severe pruritus). Exclusion criteria included having surgically disrupted enterohepatic circulation, a liver transplant, decompensated cirrhosis, or having any liver disease other than ALGS.
# sBA responders were defined as those patients achieving ≥50% reduction from baseline in sBA at week 12 or 18. ITCHRO responders were defined as those patients achieving at least a 1-point reduction from Baseline in weekly morning ITCHRO(OBS) score at week 12 or 18.
# In the open label extension, the effect of higher doses was explored by increasing dosage to a maximum of 400 μg/kg BID in eligible participants.
# Efficacy assessments were based on changes from baseline in sBA concentration, weekly average ITCHRO(OBS) scores (0, none; 4, most severe), CSS score (0, none; 4 most severe), and Clinician Xanthoma Scale score (0, none; 4, disabling). […] During the long-term extension, efficacy assessments were conducted every 12 weeks. Serum total cholesterol and serum 7αC4 concentration were also monitored during the ICONIC clinical study, among other measures.
# sBA were measured using a fully validated liquid chromatography-electrospray ionization-mass electrospray (LC-ESI-MS) method using stable-isotope dilution analysis to measure serum concentrations of principal bile acids (cholic, chenodeoxycholic, ursodeoxycholic, deoxycholic acid, lithocholic, and their corresponding glycine and taurine conjugates). Serum samples were analyzed in the Division of Pathology and Laboratory Medicine, Cincinnati Children's Hospital Medical Center according to SOP #PATH.CMS.1033. Calibration standards of individual bile acids were in the range of 50-25,000 ng/mL and Quality Control samples were prepared at concentrations of 100, 500, 1000, 2500, and 20000 ng/mL. The intra- and inter-assay imprecision of the method for individual bile acids measured was within the accepted GLP quality assurance guidelines of <15% coefficient of variance for these QC samples. The lower limit of quantification of the assay was set at 100 ng/mL and the imprecision at this concentration was <20%. The limit of detection of the assay was 5 ng/mL. Total sBA is represented by the sum of the individual bile acid species measured.
# [4] = test system: Participants with Primary Sclerosing Cholangitis (PSC); test: CAMEO 14-week single-arm open-label phase 2a proof-of-concept study
# Procedure: Participants were adults aged 18-80 years with a diagnosis of PSC. PSC diagnosis included a documented history of alkaline phosphatase (ALP) levels greater than 1.5 times above the upper limit of normal, biliary obstruction, and histological findings consistent with PSC diagnosis (if previously biopsied). The study enrolled 27 adults.
# Efficacy was assessed by measuring at baseline and throughout the study sBA concentration, serum 7αC4 concentration (a marker of de novo bile acid synthesis), serum aoutotaxin concentration, LDL-C concentration, serum total cholesterol concentration, serum liver enzyme concentrations, and pruritus severity. Pruritus severity was determined by calculating Adult Itch Reported Outcome (ITCHRO) weekly sum scores and average daily scores (mean score over a 7-day period). Participants self-reported the ITCHRO daily on a scale 0-10 (0=no pruritus; 10=most severe pruritus).
# Outcomes were assessed in the overall study population and in subgroups of participants (A) with any pruritus at baseline or (B) with an ITCHRO average daily score ≥4 out of 10 at baseline. Efficacy endpoints were based on change from baseline to week 14 or early termination (ET) and were analyzed using paired t-tests or Wilcoxon signed rank tests.
structure (smiles),measurement,setting,value
"CCCC[C@]1(CC)CS(=O)(=O)c2ccc(N(C)C)cc2[C@@H](c2cccc(NC(=O)N[C@@H]3O[C@H](COS(=O)(=O)O)[C@@H](O)[C@H](OCc4ccccc4)[C@H]3O)c2)[C@H]1O (stereo in doubt) [volixibat, (2R,3R,4S,5R,6R)-4-benzyloxy-6-{3-[3-((3 S,4R,5R)-3-butyl-7-dimethylamino-3-ethyl-4-hydroxy-1,1-dioxo-2,3,4,5-tetrahydro-1H-benzo[b]thiepin-5-yl)-phenyl]-ureido}-3,5-dihydroxy-tetrahydro-pyran-2-ylmethyl) hydrogen sulfate]",treatment-emergent adverse events,[1],"All treatment-emergent adverse events were mild, and none were serious"
same,Mean serum 7αC4,[1],increased
same,Mean sBA levels,[1],not elevated
CCCCC1(CCCC)CS(=O)(=O)c2ccc(N(C)C)cc2[C@@H](c2ccc(OCc3ccc(C[N+]45CCN(CC4)CC5)cc3)cc2)[C@H]1O.[Cl-] [maralixibat],multi-parameter response,[2]; all PFIC 1 patients and all patients harboring a truncating ABCB11 mutation,not multi-parameter responders
same,"serum ALT, AST, and bilirubin concentrations over time","[2]; all low-dose responders, e.g. within 2-6 months of first administration",normalized or only mildly elevated
same,height Z-score,"[2]; high dose responder, following treatment response on sBA",increase in height Z-score
same,Response,"[2]; individual PFIC 2 participants, one line each, max dose 280 or 560 μg/kg/day (Table 6), No reponse [sic] / Rapid complete response / Good response / No response until 560 reached",Rapid (4×) and No (19×) and Good
same,cholestasis markers after dose increase,"[2]; low-dose responder losing response in long-term extension, raised to 280 μg/kg BID at between 640 and 730 days","sBA concentration decreased, severity of pruritus decreased, serum 7αC4 concentration increased, and 7αC4:sBA ratio increased"
same,growth (height Z-score change relative to baseline),[2]; low-dose responders (FIG. 4),improved growth relative to baseline
same,7αC4 concentrations at 48 weeks,"[2]; low-dose responders (range, 3-43)",14 × baseline
same,multi-parameter responders,"[2]; mild PFIC 2 patients, 280 μg/kg QD",1 of 7
same,responders only after higher dose (high-dose responder),"[2]; moderate PFIC 2 patients, 280 μg/kg twice daily",1 of 12
same,responders by week 48,"[2]; moderate PFIC 2 patients, 280 μg/kg/day",5 of 12
same,growth (height Z-score change relative to baseline),[2]; non-responders (FIG. 4),did not
same,7αC4 concentrations at 48 weeks,"[2]; non-responders (range, 0.5-6)",1.8 × baseline
same,duration of maintained response,"[2]; responders, long-term extension",for over a year and for up to or beyond 5 years
same,treatment-emergent adverse events,[1],"All treatment-emergent adverse events were mild, and none were serious"
same,Mean serum 7αC4,[1],increased
same,Mean sBA levels,[1],not elevated
same,weight Z-scores,[3]; 400 μg/kg QD then 400 μg/kg BID (FIGS. 35-36),dose-dependent increase in weight Z-scores
same,Change in ItchRO from Baseline to Week 48,"[3]; ITCHRO(OBS) weekly morning average score, individual subjects (Table 18)",−0.12 and 0.49 and −0.45 and 0.00 and −1.86 (2×) and −1.71 (2×) and −1.00 (2×) and −1.29 and −1.67 and −1.14 and −1.03 and −2.50 and −2.71 and −3.50 and −0.17 and −1.43 and −0.83
same,study days reported as minimal or no pruritus (ITCHRO(OBS)<1),"[3]; across participants, after 98 weeks",over 89%
same,Clinician xanthoma scale scores,"[3]; all participants, by week 48 (p<0.01)",improved significantly
same,quality of life,[3]; core study and extension,improved quality of life
same,PedsQL Multidimensional Fatigue Scale scores,[3]; core study and extension (p<0.01),Improvements were seen
same,tolerability,"[3]; core study and extension, doses up to 800 μg/kg/day, up to 4 years",generally well tolerated
same,"ItchRO(Obs) Weekly Morning Average Score, Change from Baseline to Week 48","[3]; individual subjects, one line each (Table 19)",−1.86 (2×) and −1.71 (2×) and −1.00 (2×) and −1.29 and −1.67 and −1.14 and −1.03 and −1.43
same,growth after dose increase,[3]; patients (N=15) given 400 μg/kg BID after 400 μg/kg QD for more than about 40 weeks,further increase in growth from baseline
same,"sBA responders at Week 48 (N = 28), %",[3]; sBA Response Definition Normalization (<8.5 μmol/L),(3.6%)
same,"sBA responders at Week 48 (N = 28), %",[3]; sBA Response Definition ≥80% Reduction,(14.3%)
same,"sBA responders at Week 48 (N = 28), %",[3]; sBA Response Definition ≥90% Reduction,(3.6%)
same,tolerability,"[4]; adults with PSC, up to 10 mg/day, 14 weeks",well tolerated
same,"Changes in serum total bilirubin, alanine aminotransferase, aspartate aminotransferase, and alkaline phosphatase concentrations",[4]; all participants,not statistically significant
same,participants with worsening of pruritus by >1 point,[4]; baseline to week 14,No participants
same,participants with ITCHRO average daily score improved by >1 point,[4]; count of all participants,8 out of 27
same,participants with ITCHRO average daily score improved by >3 points,[4]; count of all participants,6 of 27
same,"Mean conjugated bilirubin levels, increase",[4]; overall population,0.19 mg/dL
same,conjugated bilirubin levels,[4]; participants with ITCHRO daily score ≥0 at baseline (so in the source),no significant change
same,autotaxin levels,[4]; participants with ITCHRO daily score ≥4 at baseline,significant reductions
